The record followed here is patent publication US9765069B2, “Antimicrobial compounds” (OXFORD UNIVERSITY INNOVATION LIMITED, priority 2012, dated 2017).

The subject of one data set is S1. Briefly: MIC determination (bacteria), strain S1. The format is cell-based, S. aureus. Conditions: 2-fold broth dilution. As to the method:
(§1) MIC determination (bacteria); MICs were determined based on Clinical and Laboratory Standards Institute (CLSI) methodology (Methods for dilution antimicrobial susceptibility tests for bacteria that grow aerobically; Approved Standard—seventh edition. 2006, M7-A7, CLSI, Wayne Pa.) by a 2-fold broth dilution technique in Mueller Hinton (pH7.4 Biorad). For S. pneumoniae, the medium was supplemented with 2.5% laked horse blood. For H. influenzae, the medium was haemophilus test medium (H.T.M.). Overnight cultures were diluted to obtain the final inoculum of 10^5 cfu/well. Incubation was 37° C. overnight in ambient air. The MIC was defined as the lowest concentration which inhibited all visual growth and expressed in μg/ml. For each bacterial species, all of the molecules were tested in the same experiment in order to give a head-to-head comparison.
Background: Broth dilution looks for growth in wells or tubes with falling amounts of substance.

A further data set relates to S26. In words: MIC determination (bacteria), strain S26. The conditions noted are these: 2-fold broth dilution. The format is cell-based, S. aureus. As to the method:
as §1

The test system of another data set is S4. In words: MIC determination (bacteria), strain S4. The format is cell-based, S. aureus. The conditions noted are these: 2-fold broth dilution. As to the method: as §1
For data set [1], the system named is S2 (S. aureus 2, MRSA in vivo). Briefly: MIC determination (bacteria), strain S2. The conditions noted are these: 2-fold broth dilution. The format is cell-based. As to the method:
as §1

For the next data set, the system named is E1. In words: MIC determination (bacteria), strain E1. The format is cell-based, enterococcus. Conditions: 2-fold broth dilution. As to the method: as §1
The subject of a further data set is E2. Briefly: MIC determination (bacteria), strain E2. Conditions: 2-fold broth dilution. The format is cell-based, enterococcus. As to the method:
as §1

For the next data set, the system named is P1. In words: MIC determination (bacteria), strain P1. The format is cell-based, S. pneumoniae. The conditions noted are these: 2-fold broth dilution. As to the method: as §1
A further data set has as its system P9. In words: MIC determination (bacteria), strain P9. It is filed as cell-based, S. pneumoniae. The conditions noted are these: 2-fold broth dilution. As to the method: as §1
Another data set concerns P9B. In words: MIC determination (bacteria), strain P9B. The format is cell-based, S. pneumoniae. The conditions noted are these: 2-fold broth dilution. As to the method: as §1
Another data set concerns H3. In words: MIC determination (bacteria), strain H3. The format is cell-based, H. influenzae. Conditions: haemophilus test medium. As to the method: as §1
The test system of a further data set is H4. Briefly: MIC determination (bacteria), strain H4. It is filed as cell-based, H. influenzae. Conditions: haemophilus test medium. As to the method: as §1
Another data set concerns the target E. Coli RNAP (Escherichia coli, UniProt P0A8T7+P0A8V2). Briefly: In vitro activity against E. Coli RNAP. The format is biochemical. From the text:
(§2) These properties can be determined according to techniques that are well known in the art.

Another data set deals with S. aureus membrane. In words: In vitro activity in depolarization of S. aureus membrane. Conditions: read-out: DEP (IC50). The format is cell-based.
From the text: as §2

In data set [2] the test system is mammalian_red blood cell membrane. In words: In vitro mammalian red blood cell membrane lysis activity. It is filed as cell-based. The conditions noted are these: Active or inactive at 100 μM.
From the text: as §2

The subject of data set [3] is human embryonic kidney 293 cells. Briefly: in vitro toxicities against human embryonic kidney 293 cells. It is filed as cell-based. The conditions noted are these: human embryonic kidney 293 cells.
From the text: as §2

The subject of data set [4] is human peripheral blood cells. In words: in vitro toxicities human peripheral blood cells. It is filed as cell-based. The conditions noted are these: human peripheral blood cells.
From the text: as §2

A short description of data set [5]: aqueous solubility at pH 7.4. The format is physicochemical. The conditions noted are these: aqueous solubility at pH 7.4 (water with 2% DMSO).
From the text: as §2

≈ marks a conversion by molar mass, not a printed value.

Chain of E. Coli RNAP (P0A8V2 whole entry): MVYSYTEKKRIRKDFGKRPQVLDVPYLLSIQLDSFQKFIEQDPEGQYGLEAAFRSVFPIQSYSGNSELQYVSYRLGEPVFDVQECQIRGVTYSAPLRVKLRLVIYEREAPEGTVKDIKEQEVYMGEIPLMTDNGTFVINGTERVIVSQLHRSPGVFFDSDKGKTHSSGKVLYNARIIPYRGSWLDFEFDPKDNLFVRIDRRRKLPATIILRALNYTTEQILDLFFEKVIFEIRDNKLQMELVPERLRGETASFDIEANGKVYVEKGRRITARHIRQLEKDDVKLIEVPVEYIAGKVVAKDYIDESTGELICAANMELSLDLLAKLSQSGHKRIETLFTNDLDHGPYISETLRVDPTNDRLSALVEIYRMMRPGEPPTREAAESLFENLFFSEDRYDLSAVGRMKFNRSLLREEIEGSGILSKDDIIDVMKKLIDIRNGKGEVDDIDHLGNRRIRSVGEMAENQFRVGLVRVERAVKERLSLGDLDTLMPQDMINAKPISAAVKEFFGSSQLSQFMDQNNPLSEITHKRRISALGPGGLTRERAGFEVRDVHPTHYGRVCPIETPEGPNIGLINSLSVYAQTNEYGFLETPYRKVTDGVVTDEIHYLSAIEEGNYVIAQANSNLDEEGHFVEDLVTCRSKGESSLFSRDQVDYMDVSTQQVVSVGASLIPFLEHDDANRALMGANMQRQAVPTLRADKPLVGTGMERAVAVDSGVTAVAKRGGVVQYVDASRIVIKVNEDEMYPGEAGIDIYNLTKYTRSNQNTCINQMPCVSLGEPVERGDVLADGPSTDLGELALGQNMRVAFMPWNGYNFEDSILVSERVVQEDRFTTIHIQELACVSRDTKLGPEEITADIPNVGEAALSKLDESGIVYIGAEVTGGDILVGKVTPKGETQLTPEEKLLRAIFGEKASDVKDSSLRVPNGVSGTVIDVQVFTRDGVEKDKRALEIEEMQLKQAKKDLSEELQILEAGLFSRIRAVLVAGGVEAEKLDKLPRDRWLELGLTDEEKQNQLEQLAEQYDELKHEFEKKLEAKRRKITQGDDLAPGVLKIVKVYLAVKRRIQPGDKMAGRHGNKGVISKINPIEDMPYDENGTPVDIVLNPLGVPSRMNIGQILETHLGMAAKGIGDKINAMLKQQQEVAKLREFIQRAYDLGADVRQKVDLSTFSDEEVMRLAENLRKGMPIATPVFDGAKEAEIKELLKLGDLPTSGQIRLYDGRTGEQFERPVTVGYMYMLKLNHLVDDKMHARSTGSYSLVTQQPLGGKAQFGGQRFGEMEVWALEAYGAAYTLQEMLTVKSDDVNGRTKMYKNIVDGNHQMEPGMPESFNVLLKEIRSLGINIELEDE
Chain of E. Coli RNAP (P0A8T7 whole entry): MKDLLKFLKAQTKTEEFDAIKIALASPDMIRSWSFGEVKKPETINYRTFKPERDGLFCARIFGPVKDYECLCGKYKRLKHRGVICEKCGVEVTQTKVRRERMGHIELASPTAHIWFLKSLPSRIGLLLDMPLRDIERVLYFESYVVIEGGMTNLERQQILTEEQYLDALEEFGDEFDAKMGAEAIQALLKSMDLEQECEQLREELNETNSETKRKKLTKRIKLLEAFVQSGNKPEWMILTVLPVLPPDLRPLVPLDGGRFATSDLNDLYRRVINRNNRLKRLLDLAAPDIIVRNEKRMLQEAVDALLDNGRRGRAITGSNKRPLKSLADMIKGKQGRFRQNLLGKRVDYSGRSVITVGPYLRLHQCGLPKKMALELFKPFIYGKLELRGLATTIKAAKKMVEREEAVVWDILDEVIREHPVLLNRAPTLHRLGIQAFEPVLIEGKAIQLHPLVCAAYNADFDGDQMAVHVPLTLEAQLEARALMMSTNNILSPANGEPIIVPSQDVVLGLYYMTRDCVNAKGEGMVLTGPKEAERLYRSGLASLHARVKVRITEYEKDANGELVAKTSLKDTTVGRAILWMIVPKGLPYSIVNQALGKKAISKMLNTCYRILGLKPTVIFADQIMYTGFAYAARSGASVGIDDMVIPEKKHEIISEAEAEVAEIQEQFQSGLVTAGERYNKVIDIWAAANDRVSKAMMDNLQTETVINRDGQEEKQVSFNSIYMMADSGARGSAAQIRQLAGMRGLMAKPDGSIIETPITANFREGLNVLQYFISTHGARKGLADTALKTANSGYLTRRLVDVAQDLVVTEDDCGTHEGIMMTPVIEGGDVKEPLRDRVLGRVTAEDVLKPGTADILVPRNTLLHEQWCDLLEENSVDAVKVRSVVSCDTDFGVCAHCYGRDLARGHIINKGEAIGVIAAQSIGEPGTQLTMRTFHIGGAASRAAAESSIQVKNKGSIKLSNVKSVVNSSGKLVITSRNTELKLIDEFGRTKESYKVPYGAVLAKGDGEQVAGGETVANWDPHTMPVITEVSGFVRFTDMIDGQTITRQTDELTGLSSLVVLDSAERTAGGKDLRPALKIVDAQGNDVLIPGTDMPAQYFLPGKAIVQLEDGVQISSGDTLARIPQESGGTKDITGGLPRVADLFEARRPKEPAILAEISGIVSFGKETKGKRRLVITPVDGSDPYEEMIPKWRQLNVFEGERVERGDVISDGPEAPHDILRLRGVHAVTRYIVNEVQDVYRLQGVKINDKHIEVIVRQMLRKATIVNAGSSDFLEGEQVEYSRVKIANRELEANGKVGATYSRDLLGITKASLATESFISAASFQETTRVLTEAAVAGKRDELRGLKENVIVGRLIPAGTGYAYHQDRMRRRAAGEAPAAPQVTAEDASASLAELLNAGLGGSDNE
Chain of E. Coli RNAP (P0A7Z4 whole entry partner): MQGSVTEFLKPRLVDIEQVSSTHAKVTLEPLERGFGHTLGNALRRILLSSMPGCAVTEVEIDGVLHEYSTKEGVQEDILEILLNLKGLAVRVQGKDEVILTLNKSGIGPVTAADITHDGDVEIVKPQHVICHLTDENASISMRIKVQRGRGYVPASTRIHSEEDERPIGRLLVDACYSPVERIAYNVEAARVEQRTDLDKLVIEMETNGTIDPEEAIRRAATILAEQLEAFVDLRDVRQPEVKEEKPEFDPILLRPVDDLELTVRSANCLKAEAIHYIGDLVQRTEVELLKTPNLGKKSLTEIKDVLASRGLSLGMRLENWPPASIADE
Chain of E. Coli RNAP (P0A800 whole entry partner): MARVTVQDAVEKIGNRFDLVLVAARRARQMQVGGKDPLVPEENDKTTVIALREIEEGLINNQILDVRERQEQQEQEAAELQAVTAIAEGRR

One may read the IC50 as the concentration that inhibits the measured activity by half. Regarding `CSCCC1C(=O)C(=C(O)CC23CC4CC(C)(CC(C)(C4)C2)C3)C(=O)N1C(C)=O` (centres unmarked) [31e], the “MIC S1” value in the data set on S1 (Table 2) stood at 2 mg/L (≈ 4.77 µM). Also, the “MIC S26” value with S26 (Table 2) was determined as 1 mg/L (≈ 2.38 µM). For the same molecule, the “MIC S4” value in the data set on S4 (Table 2) is 4 mg/L (≈ 9.53 µM). Moreover, the “MIC S2” value in data set [1] (Table 2) came to 4 mg/L (≈ 9.53 µM). In the data set with E1 (Table 2), the “MIC E1” value worked out at 4 mg/L (≈ 9.53 µM). For the same molecule, the “MIC E2” value against E2 (Table 2) amounted to 4 mg/L (≈ 9.53 µM). Besides, in the data set on P1 (Table 2), the “MIC P1” value worked out at 2 mg/L (≈ 4.77 µM). Further, the “MIC P9” value against P9 (Table 2) came to 2 mg/L (≈ 4.77 µM). For the same molecule, in the data set with P9B (Table 2), the “MIC P9B” value amounted to 4 mg/L (≈ 9.53 µM). The “MIC H3” value in the data set with H3 (Table 2) was found to be 32 mg/L (≈ 76.3 µM). The “MIC H4” value against H4 (Table 2 and its footnote f) came out at 4 mg/L (≈ 9.53 µM). Also, the IC50 against E. Coli RNAP was found to be 11 µM; in the data set on S. aureus membrane, 91.4 µM. Besides, the “RBC membrane lysis activity (active/inactive)” value in data set [2] is on record as “Active”. For the same molecule, in [3], the “Hek293 (LD50, μM)” value worked out at 30.3 µM. Besides, in [4], the “PMBC (LD50, μM)” value stood at 90.9 µM. Moreover, the “SOL” value in [5] is >300 µM.
Consider `CCCCCCC(=O)N1CC(=O)C(=C(O)CC23CC4CC(CC(C4)C2)C3)C1=O` [27i], for which the “MIC S1” value with S1 (Table 2) stood at 0.25 mg/L (≈ 0.645 µM). In addition, in the data set on S26 (Table 2), the “MIC S26” value was found to be 0.5 mg/L (≈ 1.29 µM). In addition, the “MIC S4” value against S4 (Table 2) stood at 0.25 mg/L (≈ 0.645 µM). Besides, the “MIC S2” value in [1] (Table 2) came to 0.25 mg/L (≈ 0.645 µM). Further, in the data set on E1 (Table 2), the “MIC E1” value was 0.12 mg/L (≈ 0.31 µM). Besides, in the data set with E2 (Table 2), the “MIC E2” value turned out to be 0.25 mg/L (≈ 0.645 µM). In addition, the “MIC P1” value against P1 (Table 2) amounted to 0.12 mg/L (≈ 0.31 µM). Besides, the “MIC P9” value with P9 (Table 2) turned out to be 0.12 mg/L (≈ 0.31 µM). Moreover, the “MIC P9B” value in the data set with P9B (Table 2) is 1 mg/L (≈ 2.58 µM). For the same molecule, the “MIC H3” value against H3 (Table 2) came out at 2 mg/L (≈ 5.16 µM). In addition, the “MIC H4” value in the data set on H4 (Table 2 and its footnote f) is 1 mg/L (≈ 2.58 µM). The concentration for half-maximal inhibition (IC50) against E. Coli RNAP was 3.1 µM; with S. aureus membrane, > 100 µM. In addition, the “RBCL (IC50, μM)” value in data set [2] is reported as “Active”. In [3], the “Hek293 (LD50, μM)” value was 10.1 µM. Further, the “PMBC (LD50, μM)” value in data set [4] worked out at 30.3 µM. Further, the “SOL” value in data set [5] was 67 to 200 µM.
For the molecule `CCCCCCCCCCCCC/C(O)=C1\C(=O)[C@@H]2CCCC(=O)N2C1=O` [22b], the IC50 on E. Coli RNAP and in the data set on S. aureus membrane was > 100 µM in each case. Also, the “RBC membrane lysis activity (active/inactive)” value in [2] is “Active”. Further, in [3], the “Hek293 (LD50, μM)” value amounted to 90.9 µM. In data set [4], the “PMBC (LD50, μM)” value is >90.9 µM. The “SOL” value in [5] fell in the range of 38 to 75 µM.
As to `CCCCCCC(=O)N1CC(=O)C(=C(O)CCCC2CCCCC2)C1=O` [27c], the “MIC S1” value against S1 (Table 2) was determined as 0.25 mg/L (≈ 0.688 µM). Moreover, the “MIC S26” value against S26 (Table 2) was found to be 1 mg/L (≈ 2.75 µM). The “MIC S4” value against S4 (Table 2) is 0.5 mg/L (≈ 1.38 µM). For the same molecule, the “MIC S2” value in data set [1] (Table 2) turned out to be 1 mg/L (≈ 2.75 µM). Besides, the “MIC E1” value against E1 (Table 2) is 0.5 mg/L (≈ 1.38 µM). Further, in the data set on E2 (Table 2), the “MIC E2” value turned out to be 0.12 mg/L (≈ 0.33 µM). In the data set on P1 (Table 2), the “MIC P1” value came to 0.12 mg/L (≈ 0.33 µM). In the data set on P9 (Table 2), the “MIC P9” value was <0.06 mg/L. In the data set with P9B (Table 2), the “MIC P9B” value came to 2 mg/L (≈ 5.5 µM). In addition, the “MIC H3” value against H3 (Table 2) turned out to be 2 mg/L (≈ 5.5 µM). For the same molecule, the “MIC H4” value in the data set with H4 (Table 2 and its footnote f) was found to be 1 mg/L (≈ 2.75 µM). Further, the IC50 against E. Coli RNAP and in the data set with S. aureus membrane was > 100 µM throughout. For the same molecule, the “Hek293 (LD50, μM)” value in data set [3] is 30.3 µM. The “PMBC (LD50, μM)” value in data set [4] was determined as 90.9 µM. In addition, the “SOL” value in [5] is >200 µM.
In the case of `CCCCCCCCCCCC(O)=C1C(=O)C(CCSC)N(C(C)=O)C1=O` (centres unmarked) [24b], the “MIC S1” value against S1 (Table 1) came out at 0.25 mg/L (≈ 0.629 µM). Further, the “MIC S26” value with S26 (Table 1) was 2 mg/L (≈ 5.03 µM). For the same molecule, in the data set with S4 (Table 1), the “MIC S4” value worked out at 1 mg/L (≈ 2.52 µM). The “MIC S2” value in [1] (Table 1) turned out to be 1 mg/L (≈ 2.52 µM). Also, the “MIC E1” value with E1 (Table 1) was <0.06 mg/L. Further, in the data set on E2 (Table 1), the “MIC E2” value was <0.06 mg/L. In the data set on P1 (Table 1), the “MIC P1” value was <0.06 mg/L. Further, the “MIC P9” value against P9 (Table 1) was <0.06 mg/L. Moreover, in the data set on P9B (Table 1), the “MIC P9B” value was determined as 0.5 mg/L (≈ 1.26 µM). Further, the “MIC H3” value in the data set on H3 (Table 1) came out at 2 mg/L (≈ 5.03 µM). Also, in the data set on H4 (Table 1), the “MIC H4” value turned out to be 2 mg/L (≈ 5.03 µM). The midpoint of inhibition against E. Coli RNAP, the IC50, lay at 25 µM. Moreover, the “Hek293 (LD50, μM)” value in data set [3] came to 30.3 µM. Also, the “PMBC (LD50, μM)” value in data set [4] was determined as 90.9 µM. In data set [5], the “SOL” value was >300 µM.
